The data set can be described thus: Gravimetric vapor sorption (GVS). The data set is classed as physicochemical. As to conditions: 25° C. Here is the method:
GVS experiments were conducted on a Surface Measurement Systems DVS-Advantage. The experiments were performed at 25° C. The instrument was operated in step mode and the relative humidity was increased in 10% RH increments from 0% RH to 90% RH with an extra step at 75% RH, then decreased from 90% RH to 0% RH with an extra step at 75% RH. The mass equilibrium criterion was set at 0.005% change in mass over time (dm/dt). A minimum step time of 15 minutes and a maximum step time of 240 minutes were specified.

The structures appear in SMILES notation.

As to `CCN(CC)CC#CCOC(=O)[C@](O)(c1ccccc1)C1CCCCC1` [Form A, (R)-oxybutynin D-malate], the hygroscopicity entry (GVS, 0-90% RH) was “non-hygroscopic solid”. The molecule also registered a moisture uptake (GVS, between 0-90% RH) of 0.1%. Where the note is “after GVS cycle 0-90-0% RH”, the “change in crystal form after the GVS test” value is reported as “No change in crystal form was observed”.

The values above are taken from US20240217918A1 (APNIMED, INC. (DELAWARE), priority 2021, published 2024).
